Experiments:
[1] = Stability determination of amidite in solvent after 24 hours (HPLC-MS, UV 254 nm); assay type: physicochemical; conditions: for Stability at 24 hours: room temperature, grades 1-3, key not given
Procedure: (§1) To a 1.5 mL vial was added 0.013 mmol of amidite after which the solid material was dissolved in 0.13 mL of solvent. Hereafter, the vial was capped, vortexed, and finally left at room temperature for 24 hours. Then, the dissolved material was visually examined regarding the solubility (FIG. 1). If the solution appeared cloudy or otherwise non-homogenous the solubility was set to “no”.
Stability Determination Method: To complete the analysis the stability of the amidite was investigated using an Agilent 1100 series HPLC-MS with from the following specifications:
Column: Waters XTerra, MS C-18, 5 μm, 2.1×100 mm
Eluent: A: 0.1% sat. NH4OH (aq) in H2O B: 20% A in CH3CN
The mass and UV peak of the mother compound was identified at 0 hours and at 24 hours. Hereafter, the relative stability compared to other by-products was reported by integrating the UV chromatogram (254 nm) and normalizing the area to the chromatogram recorded at 0 hours (FIG. 2).

[2] = Solubility of amidite in solvent, visual examination; assay type: physicochemical
Procedure: To investigate the stability and solubility of L-LNA G-DMF and L-LNA G-i-Bu the following experimental procedure was followed:
as §1

Row | Compound | stability in most solvents (side by side comparison) ([1]; most solvents) | Stability at 24 hours ([1]; solvent DCE) | Stability at 24 hours ([1]; solvent DCM) | Stability at 24 hours ([1]; solvent DMF) | Stability at 24 hours ([1]; solvent DMSO) | Stability at 24 hours ([1]; solvent Dioxane) | Stability at 24 hours ([1]; solvent MeCN:Acetone (1:1)) | Stability at 24 hours ([1]; solvent MeCN:DCE (1:1)) | Stability at 24 hours ([1]; solvent MeCN:DCM (1:1)) | Stability at 24 hours ([1]; solvent MeCN:Toluene (1:1)) | Stability at 24 hours ([1]; solvent MeCN) | Stability at 24 hours ([1]; solvent NMP) | Stability at 24 hours ([1]; solvent THE) | Stability at 24 hours ([1]; solvent Toluene) | solubility in most solvents (side by side comparison) ([2]; most solvents) | improvement in stability ([1]; all solvents investigated) | solubility in all solvents investigated ([2]; all solvents investigated (12 different))
1 | COc1ccc(C(OCC23COC(C(n4cnc5c(=O)[nH]c(N=CN(C)C)nc54)O2)C3OP2OC(c3ccccc3)C3CCCN32)(c2ccccc2)c2ccc(OC)cc2)cc1 [D-LNA G-DMF] | stable | 1 | 1 | 1 | 1 | 1 | 2 | 1 | 1 | 3 | 1 | 3 | 2 | 3 | soluble | – | –
2 | COc1ccc(C(OCC2OC(n3cc(C)c(=O)[nH]c3=O)CC2OP2OC(c3ccccc3)C3CCCN32)(c2ccccc2)c2ccc(OC)cc2)cc1 [L-DNA T-DMF] | – | 1 | 1 | 3 | 3 | 1 | 3 | 3 | 3 | 3 | 3 | 3 | 2 | 3 | – | – | –
3 | COc1ccc(C(OCC2OC(n3cnc4c(=O)[nH]c(N=CN(C)C)nc43)CC2OP2OC(c3ccccc3)C3CCCN32)(c2ccccc2)c2ccc(OC)cc2)cc1 [D-DNA G-DMF] | – | – | – | 3 | 3 | 2 | 3 | 3 | 3 | 3 | 3 | – | 3 | 3 | – | – | –
4 | COc1ccc(C(OCC23COC(C(n4cc(C)c(=O)[nH]c4=O)O2)C3OP2OC(c3ccccc3)C3CCCN32)(c2ccccc2)c2ccc(OC)cc2)cc1 [L-LNA T-DMF] | – | 1 | 1 | 1 | 2 | 1 | 2 | 1 | 1 | 3 | 1 | 2 | 1 | 3 | – | – | –
5 | COc1ccc(C(OCC23COC(C(n4cc(C)c(=O)[nH]c4=O)O2)C3OP2OC(c3ccccc3)C3CCCN32)(c2ccccc2)c2ccc(OC)cc2)cc1 [D-LNA T-DMF] | – | 1 | 1 | 2 | 3 | 2 | 2 | 1 | 1 | 3 | 1 | 3 | 1 | 3 | – | – | –
6 | COc1ccc(C(OCC2OC(n3cc(C)c(=O)[nH]c3=O)CC2OP2OC(c3ccccc3)C3CCCN32)(c2ccccc2)c2ccc(OC)cc2)cc1 [D-DNA T-DMF] | – | 1 | 1 | 3 | 3 | 1 | 2 | 3 | 3 | 3 | 3 | 3 | 1 | 3 | – | – | –
7 | COc1ccc(C(OCC2OC(n3cnc4c(=O)[nH]c(N=CN(C)C)nc43)CC2OP2OC(c3ccccc3)C3CCCN32)(c2ccccc2)c2ccc(OC)cc2)cc1 [L-DNA G-DMF] | – | – | – | 3 | 3 | 2 | 3 | 3 | 3 | 3 | 2 | – | 3 | 3 | – | – | –
8 | COc1ccc(C(OC[C@@]23CO[C@@H]([C@H](n4cnc5c(=O)[nH]c(NC(=O)C(C)C)nc54)O2)[C@@H]3O[P@]2O[C@H](c3ccccc3)[C@@H]3CCCN32)(c2ccccc2)c2ccc(OC)cc2)cc1 [L-LNA G-iBu, N-(9-((1R,3R,4R,7S)-1-((bis(4-methoxyphenyl)(phenyl)methoxy)methyl)-7-(((1R,3R,3aS)-3-phenyltetrahydro-1H,3H-pyrrolo[1,2-c][1,3,2]oxazaphosphol-1-yl)oxy)-2,5-dioxabicyclo[2.2.1]heptan-3-yl)-6-oxo-6,9-dihydro-1H-purin-2-yl)isobutyramide] | – | 2 | 2 | 3 | 3 | 1 | 2 | 2 | 2 | 3 | 2 | – | 2 | 3 | – | significant improvement | soluble
